The target of series [1] is T1, Argininosuccinate synthase (ASS1) (Homo sapiens, UniProt P00966).
T1 construct: recombinant human ASS1, N-terminal 6×His tag (pET28a), NM_000050
T1 sequence (P00966 1-412): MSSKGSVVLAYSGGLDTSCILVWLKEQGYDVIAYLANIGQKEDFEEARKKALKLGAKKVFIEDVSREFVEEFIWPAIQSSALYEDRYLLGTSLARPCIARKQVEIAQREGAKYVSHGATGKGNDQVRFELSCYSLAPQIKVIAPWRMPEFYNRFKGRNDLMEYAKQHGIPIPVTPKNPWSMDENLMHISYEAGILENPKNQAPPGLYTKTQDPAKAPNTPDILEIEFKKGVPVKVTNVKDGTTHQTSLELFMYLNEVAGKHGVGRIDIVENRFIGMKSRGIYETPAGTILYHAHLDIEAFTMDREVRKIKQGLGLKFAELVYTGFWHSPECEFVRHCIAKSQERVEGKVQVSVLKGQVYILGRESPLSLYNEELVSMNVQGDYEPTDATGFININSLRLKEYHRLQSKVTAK
In words: SPR (BIAcore X100); also LC-MS/MS of Cys97 adduct, competition with Biotin-SPA, enzyme activation (AC50 […]). The series is classed as binding.

The subject of the next series is HCC1500. The experiment in a line: cells. Further details: crystal violet staining viability/proliferation assay, IC50 (SPSS), LM-2I on breast cancer and normal breast epithelial lines. The note with it: HCC1500; mean of 3 repeats. On the procedure:
(§1) Fig. 1 SPA and its derivative LM-2I inhibit breast cancer proliferation and growth. a Chemical structures of SPA (1). b Crystal violet assay for the effects of SPA on breast cancer cell proliferation. IC50 values were calculated with SPSS 18.0 (mean ± s.d., n = 3 biologically independent experiments). c Representative microscope images of colony formation for different breast cancer cell lines treated with SPA. Scale bars are […]. d Chemical structures of LM-2I (2). e Crystal violet assay for the effects of LM-2I on breast cancer cell proliferation. IC50 values were calculated with SPSS 18.0 (mean ± s.d., n = 3 biologically independent experiments). f Representative microscope images of colony formation for different breast cancer cell lines treated with LM-2I. Scale bars are […]. MDA-MB-231 cells were inoculated subcutaneously into the right flank of nu/nu female mice. When the average tumor size reached about 100 mm^3, mice were treated with ether vehicle, SPA (10 mg/kg/day) or LM-2I (5 mg/kg/day). Tumor sizes (g) and mouse body weight (i) were measured every 2 days. 28 days later, mice were sacrificed and tumors were dissected and weighted (h). Data represent mean ± s.d. (n = 8 mice per group). *P < 0.05, ***P < 0.001, NS: not significant (P > 0.05) from two-tailed unpaired Student’s t tests.Source data are provided as a Source Data file. All cell lines were purchased from American Type Culture Collection (ATCC, Manassas, VA, USA). The human breast cancer (BC) cell lines BT549, BT474 and T47D were maintained in RPMI 1640 containing 10% (v/v) fetal bovine serum (FBS, Gibco), 0.01 mg/mL insulin and 100 units/mL penicillin/streptomycin (HyClone). SKBR3, Hs578T, and BT20 human BC cell lines were cultured in DMEM medium with 10% (v/v) FBS and 100 units/mL penicillin/streptomycin. HCC1500, HCC1806, and HCC1937 human BC cell lines were cultured in RPMI 1640 medium supplement with 10% (v/v) FBS and 100 units/mL penicillin/streptomycin. MDA-MB-231 human BC cell line was cultured in DMEM/F12 (1: 1) medium with 10% (v/v) FBS and 100 units/mL penicillin/streptomycin. MDA-MB-468 human BC cell line was cultured in DMEM (high glucose) medium with 10% (v/v) FBS and 100 units/mL penicillin/streptomycin. MCF-7 human BC cell line was cultured in EMEM medium with 10% (v/v) FBS, 0.01 mg/mL insulin and 100 units/mL penicillin/streptomycin. […] All of the cells cultured in a humidified incubator at 37 °C and 5% CO2/95% air (v/v).

In a further series the test system is MDA-MB-468. The experiment in a line: cells. Further details: crystal violet staining viability/proliferation assay, IC50 (SPSS), LM-2I on breast cancer and normal breast epithelial lines. To be noted: Homo sapiens, MDA-MB-468; mean of 3 repeats. Here is the method: as §1
The subject of a further series is HCC1806. In words: cells. The arrangement: crystal violet staining viability/proliferation assay, IC50 (SPSS), LM-2I on breast cancer and normal breast epithelial lines. To be noted: Homo sapiens, HCC1806; mean of 3 repeats. On the procedure:
as §1

In the next series the test system is T47D. The experiment in a line: cells. To be noted: Homo sapiens, T47D; mean of 3 repeats. Further details: crystal violet staining viability/proliferation assay, IC50 (SPSS), LM-2I on breast cancer and normal breast epithelial lines. Here is the method: as §1
Another series relates to MDA-MB-231. The experiment in a line: cells. The arrangement: crystal violet staining viability/proliferation assay, IC50 (SPSS), LM-2I on breast cancer and normal breast epithelial lines. To be noted: Homo sapiens, MDA-MB-231; mean of 3 repeats. Here is the method:
as §1

The test system of a further series is BT549. The experiment in a line: cells. The arrangement: crystal violet staining viability/proliferation assay, IC50 (SPSS), LM-2I on breast cancer and normal breast epithelial lines. To be noted: Homo sapiens, BT-549; mean of 3 repeats. Here is the method: as §1
The next series relates to SKBR3. The experiment in a line: cells. The arrangement: crystal violet staining viability/proliferation assay, IC50 (SPSS), LM-2I on breast cancer and normal breast epithelial lines. To be noted: Homo sapiens, SK-BR-3; mean of 3 repeats. Here is the method:
as §1

A further series has as its system MCF-7. The experiment in a line: cells. The arrangement: crystal violet staining viability/proliferation assay, IC50 (SPSS), LM-2I on breast cancer and normal breast epithelial lines. The note with it: Homo sapiens, MCF7; mean of 3 repeats. Here is the method:
as §1

The test system of the next series is HCC1937. In words: cells. The arrangement: crystal violet staining viability/proliferation assay, IC50 (SPSS), LM-2I on breast cancer and normal breast epithelial lines. The note with it: Homo sapiens, HCC1937; mean of 3 repeats. Here is the method: as §1
In a further series the test system is BT474. In words: cells. Further details: crystal violet staining viability/proliferation assay, IC50 (SPSS), LM-2I on breast cancer and normal breast epithelial lines. To be noted: Homo sapiens, BT-474; mean of 3 repeats. Here is the method: as §1
Another series deals with HS578T. In words: cells. Further details: crystal violet staining viability/proliferation assay, IC50 (SPSS), LM-2I on breast cancer and normal breast epithelial lines. To be noted: Homo sapiens, Hs-578T; mean of 3 repeats. On the procedure: as §1
Another series deals with BT20. In words: cells. Further details: crystal violet staining viability/proliferation assay, IC50 (SPSS), LM-2I on breast cancer and normal breast epithelial lines. To be noted: Homo sapiens, BT-20; mean of 3 repeats. On the procedure:
as §1

Series [2] addresses T1, Argininosuccinate synthase (ASS1). The experiment in a line: SPR (BIAcore X100); also LC-MS/MS of Cys97 adduct, competition with Biotin-SPA, enzyme activation (AC50 […]). It is filed as binding. The source holds these as a separate data set. (SPR reads the build-up and loss of mass on a sensor chip optically.)
The next series can be described thus: in vitro. The arrangement: crystal violet staining viability/proliferation assay, IC50 (SPSS), LM-2I on breast cancer and normal breast epithelial lines. The note with it: human, Mean; mean of 3 repeats; given as IC50. Here is the method:
(§2) Fig. 1 SPA and its derivative LM-2I inhibit breast cancer proliferation and growth. a Chemical structures of SPA (1). b Crystal violet assay for the effects of SPA on breast cancer cell proliferation. IC50 values were calculated with SPSS 18.0 (mean ± s.d., n = 3 biologically independent experiments). c Representative microscope images of colony formation for different breast cancer cell lines treated with SPA. Scale bars are 40 µM. d Chemical structures of LM-2I (2). e Crystal violet assay for the effects of LM-2I on breast cancer cell proliferation. IC50 values were calculated with SPSS 18.0 (mean ± s.d., n = 3 biologically independent experiments). f Representative microscope images of colony formation for different breast cancer cell lines treated with LM-2I. Scale bars are 40 µM. MDA-MB-231 cells were inoculated subcutaneously into the right flank of nu/nu female mice. When the average tumor size reached about 100 mm^3, mice were treated with ether vehicle, SPA (10 mg/kg/day) or LM-2I (5 mg/kg/day). Tumor sizes (g) and mouse body weight (i) were measured every 2 days. 28 days later, mice were sacrificed and tumors were dissected and weighted (h). Data represent mean ± s.d. (n = 8 mice per group). *P < 0.05, ***P < 0.001, NS: not significant (P > 0.05) from two-tailed unpaired Student’s t tests.Source data are provided as a Source Data file. […]

The next series relates to 184B5. The experiment in a line: in vitro. The arrangement: crystal violet staining viability/proliferation assay, IC50 (SPSS), LM-2I on breast cancer and normal breast epithelial lines. To be noted: mean of 3 repeats; given as IC50; inhibitor. Here is the method:
as §2

Series [3] deals with T1, Argininosuccinate synthase (ASS1). In words: covalent labelling kinetics by streptavidin-HRP blot (kinact […] min^-1); pull-down from MCF-7 lysate. The series is classed as binding. The note with it: read-out: Ki.

Where two headings read alike, the source gives them in different places.

As a reminder, the Kd is the constant that tells how readily two partners part at equilibrium. The low end stands for higher affinity, the high end for lower affinity. `CC[C@H]1CCC[C@H](O[C@H]2CC[C@H](N(C)C)[C@@H](C)O2)[C@@H](C)C(=O)C2=C[C@@H]3[C@@H](C=C[C@@H]4C[C@@H](O[C@@H]5O[C@@H](C)[C@H](OC)[C@@H](OC)[C@H]5OC)C[C@@H]34)[C@@H]2CC(=O)O1` [compound 1, spinosyn A] showed a Kd in [1] of 0.358 µM.

In general, IC50 refers to the midpoint of a concentration-inhibition curve. The term CC50 denotes the concentration at which the toxic effect on the cells reaches its halfway point. Low readings indicate greater toxicity to the cells, high ones lower toxicity to the cells. For the compound `CC[C@H]1CCC[C@H](O[C@H]2CC[C@H](N(C)CC(O)CN3CCNCC3)[C@@H](C)O2)[C@@H](C)C(=O)C2=C[C@@H]3[C@@H](C=C[C@@H]4C[C@@H](O[C@@H]5O[C@@H](C)[C@H](OC)[C@@H](OC)[C@H]5OC)C[C@@H]34)[C@@H]2CC(=O)O1` (some centres unmarked) [compound 2, LM-2I], the IC50 in the series on HCC1500 amounted to 10 µM; with MDA-MB-468 it was 5.11 µM; in the series with HCC1806, 2.13 µM; in the series on T47D it was 5.95 µM; with MDA-MB-231, 1.09 µM; in the series with BT549 it was 1.51 µM. In addition, the half-inhibitory concentration (IC50) in the series with SKBR3 came to 5.12 µM; in the series on MCF-7, 5.94 µM; in the series on HCC1937, 7.64 µM; with BT474, 6.2 µM; with HS578T, 1.76 µM; with BT20, 8.22 µM. In [2], this compound came in with a Kd of 0.194 µM. Further, the CC50 is 8.52 µM in the series “in vitro” and 7.89 µM with 184B5.

As to `CC[C@H]1CCC[C@H](O[C@H]2CC[C@H](N(C)CCCCCCOC(=O)CCCC[C@@H]3SC[C@@H]4NC(=O)N[C@@H]43)[C@@H](C)O2)[C@@H](C)C(=O)C2=C[C@@H]3[C@@H](C=C[C@@H]4C[C@@H](O[C@@H]5O[C@@H](C)[C@H](OC)[C@@H](OC)[C@H]5OC)C[C@@H]34)[C@@H]2CC(=O)O1` [compound 4, Biotin-SPA], in series [3], the KI (inactivation) was 9.01 µM.

The values above are taken from paper PMC8050083, “Naturally-occurring spinosyn A and its derivatives function as argininosuccinate synthase activator and tumor inhibitor” (Nature Communications, 2021).
